Key:
[1] = system: iPSC-derived hepatocytes; assay: RNA Sequencing of iPSCs fully differentiated to hepatocytes; type: cell-based, human; details: 5 paired iPSCs, doxycycline during endoderm phase
Experimental: Differentiation of Definitive Endoderm to hepatocytes (days 8-23). iPSC-derived human endoderm prepared as described herein was cultured continuously on Matrigel or split 1:2 onto Matrigel plates for hepatic differentiation. Definitive endoderm (DE) was cultured in Iscove's modified Dulbecco's medium (Gibco catalog #supplemented with Gem21 NeuroPlex without insulin (Gemini Bio-Products catalog #400-962), Glutagro, non-essential amino acids (1×, Gibco catalog #11-140-050), 0.3 mM monothioglycerol, 5 μg/mL human insulin (Sigma), and 100 nM dexamethasone. To induce hepatoblasts, cells were treated with FGF2 (10 ng/mL) and BMP4 (20 ng/mL) for 5 days. During this phase, cells can be passaged using accutase and split at least 2 to 4× to increase yield and quality of final product again onto Matrigel with the addition of 10 μM Y-27632 and 2 μM doxycycline to increase cell survival during accutase treatment and splitting. This phase and the next were grown at low oxygen (4-6%) and 5% CO2. […]
RNA isolation, Real-Time PCR analysis, and RNA Sequencing. […] Quantitative Real-Time PCR was performed using FastStart Universal SYBR Green, Roche Diagnostics (Indianapolis, IN). […] On average, 27,642,407 raw reads were obtained and mapped. Raw reads were subjected to quality control. Clean reads were analyzed by Gene Ontology analysis, KEGG pathway enrichment, and cluster analysis. […]

[2] = system: Cleaved Caspase 3 (CC3); assay: Cleaved caspase 3 immunofluorescence during endoderm induction; type: cell-based, human; details: 48 hours of induction, 4 different cell-line experiments
Experimental: Immunohistochemistry and Cell staining. iPSCs, endodermal cells and iHeps were fixed using 4% paraformaldehyde for 15 minutes, permeabilized using 0.1% Triton X-100 for 10 minutes followed by 3× PBS (phosphate buffered saline, Corning Life Sciences) rinses and blocking with 1.5% bovine serum albumin for 1 hour. Samples were incubated with primary antibody overnight. […]
As a first step to understand the mechanism by which doxycycline was affecting induction of iPSCs into endoderm, we explored whether doxycycline was affecting proliferation versus cellular death. […] After quantification, we noted both significant Ki-67 staining and cleaved caspase 3 (CC3) staining, as expected (FIG. 3A). […]

## C[C@H]1c2cccc(O)c2C(=O)C2=C(O)[C@]3(O)C(=O)C(C(N)=O)=C(O)[C@@H](N(C)C)[C@@H]3[C@@H](O)[C@@H]21 [doxycycline]
[1]
  effect on final iPSC-derived hepatocytes (principal component analysis): did not alter the final product
[2]
  decrease in CC3 staining: greater than 50%

— patent US20230002736A1, “ENDODERM DIFFERENTIATION FROM PLURIPOTENT STEM CELL LINES” (priority 2019, published 2023)
